According to patent US7579369B2, “CB 1 receptor inverse agonists” (Hoffmann-La Roche Inc., priority 2003, dated 2009):

These molecules were tested against T1, human cannabis CB1 receptor (Homo sapiens, UniProt P21554) (assay: Affinity for cannabinoid CB1 receptors, [3H]-CP-55,940 radioligand binding on HEK cell membranes). Details: affinity for the CB1 receptor.
T1 construct: expressed in transfected cells; host or cells: human embryonic kidney (HEK) cells, Semliki Forest Virus system, membrane preparation
T1 sequence (P21554 whole entry): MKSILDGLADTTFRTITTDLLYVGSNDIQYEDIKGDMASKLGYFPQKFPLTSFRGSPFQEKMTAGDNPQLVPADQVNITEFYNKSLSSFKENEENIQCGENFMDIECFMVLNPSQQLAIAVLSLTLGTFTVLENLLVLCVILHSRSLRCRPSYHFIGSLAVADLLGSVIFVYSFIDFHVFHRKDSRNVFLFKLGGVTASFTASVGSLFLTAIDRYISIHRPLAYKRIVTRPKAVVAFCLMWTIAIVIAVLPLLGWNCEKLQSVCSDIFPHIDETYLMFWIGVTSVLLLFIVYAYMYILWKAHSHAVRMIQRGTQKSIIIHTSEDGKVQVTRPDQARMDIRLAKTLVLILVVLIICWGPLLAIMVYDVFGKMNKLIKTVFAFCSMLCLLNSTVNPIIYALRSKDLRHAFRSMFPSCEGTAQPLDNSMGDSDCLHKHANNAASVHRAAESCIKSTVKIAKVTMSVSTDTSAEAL
Description: The affinity of the compounds of the invention for cannabinoid CB1 receptors was determined using membrane preparations of human embryonic kidney (HEK) cells in which the human cannabis CB1 receptor is transiently transfected using the Semliki Forest Virus system in conjunction with [3H]-CP-55,940 as radioligand. After incubation of a freshly prepared cell membrane preparation with the [3H]-ligand, with or without addition of compounds of the invention, separation of bound and free ligand was performed by filtration over glassfiber filters. Radioactivity on the filter was measured by liquid scintillation counting.
The compounds of formula (I) show an excellent affinity for the CB1 receptor, determined with the experimental conditions described in Devane et. al. Mol. Pharmacol. 34 (1988) 605-613.

Row | Compound | IC50 [nM]
1 | CCCCNC(=O)c1nc(-c2ccccc2OC)n(CC2CCCCC2)c1C [Example 52, Cyclohexylmethyl-2-(2-methoxy-phenyl)-5-methyl-1H-imidazole-4-carboxylic acid butylamide] | < 2000
2 | COc1ccccc1-c1nc(C(=O)NN2CCCCC2)c(C)n1CC1CCCCC1 [Example 54, Cyclohexylmethyl-2-(2-methoxy-phenyl)-5-methyl-1H-imidazole-4-carboxylic acid piperidin-1-ylamide] | < 2000
3 | COc1cc(C)c(Cl)cc1-c1cc(C(=O)NC2CCCCC2)c(C)n1CC1CCCCC1 [Example 91, 5-(5-Chloro-2-methoxy-4-methyl-phenyl)-1-cyclohexylmethyl-2-methyl-1H-pyrrole-3-carboxylic acid cyclohexylamide] | < 2000
4 | Cc1c(C(=O)NC2CCCCC2)cc(-c2cc(C(F)(F)F)ccc2F)n1C[C@H]1CCCC[C@H]1O (racemic) [Example 283, 5-(2-Fluoro-5-trifluoromethyl-phenyl)-1-((1RS,2RS)-2-hydroxy-cyclohexylmethyl)-2-methyl-1H-pyrrole-3-carboxylic acid cyclohexylamide] | < 2000
5 | Cc1c(C(=O)NN2CCCCC2)cc(-c2cc(C(F)(F)F)ccc2Cl)n1CC1CCCCC1 [Example 264, 5-(2-Chloro-5-trifluoromethyl-phenyl)-1-cyclohexylmethyl-2-methyl-1H-pyrrole-3-carboxylic acid piperidin-1-ylamide] | < 2000
6 | Cc1c(C(=O)N[C@@H]2CCCC[C@H]2O)cc(-c2cc(C(F)(F)F)ccc2F)n1CC1CCCCC1O (mixture of isomers) [Example 286] | < 2000
7 | Cc1c(C(=O)NC2CCCCC2)cc(-c2cc(C(F)(F)F)ccc2F)n1C[C@@H]1CCCC[C@H]1O (racemic) [Example 282, 5-(2-Fluoro-5-trifluoromethyl-phenyl)-1-((1SR,2RS)-2-hydroxy-cyclohexylmethyl)-2-methyl-1H-pyrrole-3-carboxylic acid cyclohexylamide] | < 2000
8 | Cc1c(C(=O)N[C@@H]2CCCC[C@H]2O)cc(-c2cc(C(F)(F)F)ccc2C(F)(F)F)n1CCC1CC1 [Example 290, 5-(2,5-Bis-trifluoromethyl-phenyl)-1-(2-cyclopropyl-ethyl)-2-methyl-1H-pyrrole-3-carboxylic acid ((1R,2R)-2-hydroxy-cyclohexyl)-amide] | < 2000
9 | Cc1ccc(C(F)(F)F)cc1-c1cc(C(=O)N[C@@H]2CCCC[C@H]2O)c(C)n1CC1CCCCC1 [Example 301, Cyclohexylmethyl-2-methyl-5-(2-methyl-5-trifluoromethyl-phenyl)-1H-pyrrole-3-carboxylic acid ((1R,2R)-2-hydroxy-cyclohexyl)-amide] | < 2000
10 | CCCCNC(=O)c1cc(-c2cc(OC)ccc2OC)n(CC2CCCCC2)c1C [Example 21, Cyclohexylmethyl-5-(2,5-dimethoxy-phenyl)-2-methyl-1H-pyrrole-3-carboxylic acid butylamide] | < 2000
11 | CCCCNC(=O)c1cc(-c2ccc(N3CCCC3)cc2)n(CC2CCCCC2)c1C [Example 19, Cyclohexylmethyl-2-methyl-5-(4-pyrrolidin-1-yl-phenyl)-1H-pyrrole-3-carboxylic acid butylamide] | < 2000
12 | COc1ccc(Cl)cc1-c1cc(C(=O)NC2CCCCC2)c(C)n1CC1CCCCC1 [Example 89, 5-(5-Chloro-2-methoxy-phenyl)-1-cyclohexylmethyl-2-methyl-1H-pyrrole-3-carboxylic acid cyclohexylamide] | < 2000
13 | Cc1c(C(=O)NC2CCCCC2)cc(-c2cc(C(F)(F)F)ccc2Cl)n1C[C@H]1CCCC[C@H]1O (racemic) [Example 294, 5-(2-Chloro-5-trifluoromethyl-phenyl)-1-((1RS,2RS)-2-hydroxy-cyclohexylmethyl)-2-methyl-1H-pyrrole-3-carboxylic acid cyclohexylamide] | < 2000
14 | CCCCNC(=O)c1cc(-c2cc(C(F)(F)F)cc(C(F)(F)F)c2)n(CC2CCCCC2)c1C [Example 41, 5-(3,5-Bis-trifluoromethyl-phenyl)-1-cyclohexylmethyl-2-methyl-1H-pyrrole-3-carboxylic acid butylamide] | < 2000
15 | COc1ccc(F)cc1-c1cc(C(=O)NC2CCCCC2)c(C)n1CC1CC1 [Example 194, Cyclopropylmethyl-5-(5-fluoro-2-methoxy-phenyl)-2-methyl-1H-pyrrole-3-carboxylic acid cyclohexylamide] | < 2000
